Experiments:
Format in all cases: in vivo
Aphis craccivoral = test: Insecticidal activities to aphids, immersion method
In short: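 Wingless adult aphids feeding on bean sprouts were dipped 5 s in 500 ppm compound (DMF stock diluted in 0.2 mL/L aqueous Triton X-100), blotted and held at 23° C. Dead counted at 24 h, three replicates; mortality corrected against Triton-only controls.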

Nilaparvata lugens = test: Insecticidal activities to plant hopper, spraying method
In short: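 Nilaparvata lugens, 10 insects per tumbler, sprayed with 2 ml compound in acetone at 0.79-500 ppm, three replicates, aqueous acetone control. Dead insects counted after 24 h; mortality corrected against control survival.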

Plutella xylostella = test: Insecticidal activities to diamondback moth, feeding dipped leaves
In short: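 Leaf-dip feeding assay: fresh cabbage leaves dipped 3 s in test solution, air-dried and fed to Plutella xylostella, 10 insects per treatment, three replicates, water control. Deaths counted after 24 h; mortality corrected against survival in the control group.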

[1] = test system: Pseudaletia separate Walker; test: Insecticidal activities to armyworm, leaf dipping and feeding
In short: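 Maize leaves dipped 3 s in acetone-formulated compound at 500 down to 1.57 ppm, dried and fed to armyworms, 10 insects per treatment in triplicate, aqueous acetone as control. Mortality was counted after 24 hours and corrected against control survival.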

[2] = 500 ppm, leaf dipping and feeding, counted after 24 hours

| Structure (SMILES) | Aphis craccivoral Mortality (%) 500 ppm (Aphis craccivoral; in vivo) | Nilaparvata lugens Mortality (%) 500 ppm (Nilaparvata lugens; in vivo) | Plutella xylostella Mortality (%) 500 ppm (Plutella xylostella; in vivo) | Pseudaletia separate Walker Mortality (%) 500 ppm ([1]; in vivo) | mortality at 500 ppm (Aphis craccivoral; Aphis, 500 ppm, immersion method, read-out: Aphis craccivoral Mortality (%) 500 ppm) | mortality at 500 ppm (Nilaparvata lugens; Nilaparvata lugens, 500 ppm, spraying method, counted after 24 hours, read-out: Nilaparvata lugens Mortality (%) 500 ppm) | mortality at 500 ppm (Plutella xylostella; Plutella xylostella, 500 ppm, feeding dipped leaves, counted after 24 hours, read-out: Plutella xylostella Mortality (%) 500 ppm) | Pseudaletia separate Walker Mortality (%) 500 ppm [1, 2] | Aphis craccivoral Mortality (%) 500 ppm (Aphis craccivoral; 500 ppm, immersion method) | Nilaparvata lugens Mortality (%) 500 ppm (Nilaparvata lugens; 500 ppm, spraying method, counted after 24 hours) | Plutella xylostella Mortality (%) 500 ppm (Plutella xylostella; 500 ppm, feeding dipped leaves, counted after 24 hours) |
| --- | --- | --- | --- | --- | --- | --- | --- | --- | --- | --- | --- |
| O=[N+]([O-])C(=Cc1ccc([N+](=O)[O-])o1)C1=NCCN1CC1CCOC1 (centres unmarked) [Compound 93] | 78% | 87% | 96% | 100% | – | – | – | – | – | – | – |
| O=[N+]([O-])/C(=C/c1cccs1)C1=NCCN1Cc1ccc(Cl)nc1 [Compound 16, 2-chloro-5-((2-(1-nitro-2-(thiophen-2-yl)vinyl)-4,5-dihydro-imidazol-1-yl)-methyl)pyridine] | – | – | – | – | 100% | 100% | 100% | 100% | – | – | – |
| O=[N+]([O-])C(=Cc1ccoc1)C1=NCCN1Cc1cnc(Cl)s1 [Compound 69] | 100% | 100% | 100% | 100% | – | – | – | – | – | – | – |
| O=[N+]([O-])C(=Cc1ccccc1O)C1=NCCN1Cc1ccc(Cl)nc1 [Compound 45] | 56% | 76% | 23% | 89% | – | – | – | – | – | – | – |
| CC(=C(C1=NCCN1Cc1ccc(Cl)nc1)[N+](=O)[O-])c1ccsc1 [Compound 116] | 89% | 94% | 64% | 76% | – | – | – | – | – | – | – |
| N#CC(=Cc1ccsc1)C1=NCCN1Cc1ccc(Cl)nc1 [Compound 147] | 100% | 100% | 100% | 100% | – | – | – | – | – | – | – |
| O=[N+]([O-])C(=Cc1oc(Cl)cc1Cl)C1=NCCN1Cc1ccc(Cl)nc1 [Compound 9] | 100% | 100% | 100% | 100% | – | – | – | – | – | – | – |
| O=[N+]([O-])C(=Cc1cc(Br)c(Br)o1)C1=NCCN1CC1CCOC1 (centres unmarked) [Compound 100] | 90% | 100% | 100% | 100% | – | – | – | – | – | – | – |
| O=[N+]([O-])C(=Cc1sc(Cl)cc1Cl)C1=NCCN1Cc1ccc(Cl)nc1 [Compound 24] | – | – | – | – | – | – | – | 100% | 100% | 100% | 100% |
| Cc1ccc(C=C(C2=NCCN2Cc2cnc(Cl)s2)[N+](=O)[O-])o1 [Compound 79] | 100% | 100% | 100% | 100% | – | – | – | – | – | – | – |
| O=[N+]([O-])C(=Cc1cnc[nH]1)C1=NCCN1Cc1ccc(Cl)nc1 [Compound 36] | 98% | 89% | 100% | 100% | – | – | – | – | – | – | – |
| Cc1ccc(C=C(C2=NCCN2Cc2ccc(Cl)nc2)[N+](=O)[O-])cn1 [Compound 42] | 45% | 36% | 90. % | 87% | – | – | – | – | – | – | – |
| CCc1ccc(C=C(C2=NCCCN2Cc2ccc(Cl)nc2)[N+](=O)[O-])o1 [Compound 59] | 57% | 84% | 100% | 86% | – | – | – | – | – | – | – |
| O=[N+]([O-])C(=Cc1cc(Br)cs1)C1=NCCCN1Cc1ccc(Cl)nc1 [Compound 67] | 65% | 83% | 100% | 90% | – | – | – | – | – | – | – |

Source: patent US8232407B2, “Nitrogenous heterocyclic compounds with insecticidal activity, and the preparation and use thereof” (East China University of Science and Technology, priority 2008, dated 2012)
